Assays:
[1] = target: T1, GppNHp-loaded KRAS4b (amino acids 1-169) G12C/C118S protein (Homo sapiens, UniProt P01116, C118S/G12C); test: Covalent cysteine 12 modification by MALDI-TOF MS, GppNHp-loaded KRAS G12C; assay type: binding; details: 15 minutes reaction time point
T1 construct: KRAS4b (amino acids 1-169) G12C/C118S protein; made in house
Protocol: (§1) Biological Example 1: Covalent Cysteine 12 Modification Analysis Using Matrix Assisted Laser Desorption Ionization-Time of Flight Mass Spectrometry (MALDI-TOF MS)
(§2) MALDI-TOF MS analysis was performed using 1 μM protein (KRAS G12C), and 1:2.5 protein to compound ratio.
(§3) Reaction: 1 μM of GppNHp, GTP, or GDP-loaded KRAS4b (amino acids 1-169) G12C/C118S protein (produced in-house by Protein Expression Laboratory, FNLCR/Leidos Biomed) in 20 mM 4-(2-hydroxyethyl)-1-piperazineethanesulfonic acid (HEPES) buffer containing 150 mM NaCl, 1 mM MgCl2, pH 7.3 was prepared freshly before assay. Twelve-μL aliquots of protein were dispensed onto low volume 384-well plate, then 30 nL of tested compounds from 1 mM DMSO stocks were added to appropriate wells using ECHO 555 acoustic liquid handler (Labcyte Inc.). For each reaction/assay, three blanks were prepared by mixing 12 μL of protein solution with 30 nL DMSO. The contents of the wells were carefully mixed by aspiration, and then each plate was sealed with an adhesive cover, centrifuged at 2000 g for 1 minute, and kept in the dark at room temperature until 5 min, 15 min, 30 min, 2 h, or 6 h collections.
(§4) Target pretreatment: Before each assay MALDI target (Bruker MPT 384 ground steel BC) was pre-treated by pipetting on each spot 0.75 μL of saturated sinapinic acid in acetonitrile (ACN).
(§5) Sample preparation: At collection time point, 2 μL of reaction mixtures were pipetted out into 15 μL MALDI matrix solution (saturated solution of sinapinic acid in 1:1 ACN:water solution containing 0.75% trifluoroacetic acid (TFA)) deposited on 384 well polypropylene plate. Resulting solution was mixed by aspiration, centrifuged at 2000 g for 1 minute, then 1.5 μL aliquots were dispensed on pre-treated MALDI target using Beckman Coulter Biomek FXP 96/384-Span-8 Laboratory Automation Workstation. Finally, the MALDI target was dried under mild vacuum to produce spots with fine crystalline structure.
(§6) Measurements: MALDI-TOF measurements were performed on a Bruker Daltonics rapiflex Tissuetyper TOF-TOF mass spectrometer using linear mode and mass range from 18.6 to 21.6 kDa. Detector gain was set to 3.3×(483 V), sample rate to 5 GS/s, real time smoothing to medium (175 MHz), laser smart beam pattern was set to: “MS Thin Layer M5”, and the laser frequency was 10000 Hz. Spectra were automatically collected using custom AutoXecute method. Laser power was auto adjusted using fuzzy control. The peak selection range was set to be between 19000 and 21500 Da. Peak evaluation uses half width parameter set to be smaller than 40 Da for processed spectrograms (centroid peak detection; smoothed by SavitzkyGolay algorithm using 7 m/z width and 2 cycles; baseline was subtracted using median algorithm with flatness 1 and median level 0.01). Fuzzy control used Proteins/Oligonucleotides protocol with minimum half width 1/10 times above threshold. Up to 40000 satisfactory shots were collected in 10000 shot steps. Dynamic termination was implemented to finish data collection when peak signal/noise ratio was reaching value of 50.
(§7) Spectra processing: Spectra were smoothed by SavitzkyGolay algorithm using 7 m/z width and three cycles. Centroid peak detection algorithm was used with signal to noise threshold set to 6, relative intensity threshold 4%, peak width 10 m/z and median baseline subtraction using flatness of 1 and median level of 0.01. Peak intensity and area under the peak were evaluated and recorded for all peaks between 19,300 Da and 21,550 Da.
(§8) Calculation of percent modification: Percent modification was calculated as a ratio of peak height for protein modified by compound to sum of peak height of remaining protein plus peak height for protein modified by compound. If multiple modifications were observed each was calculated as a ratio of peak height for given modification versus sum of peak heights for all observed protein species. Data reported in Table 4 are from 15 minutes reaction time point. […]

[2] = target: T2, GTP-loaded KRAS4b (amino acids 1-169) G12C/C118S protein (Homo sapiens, UniProt P01116, C118S/G12C); test: Covalent cysteine 12 modification by MALDI-TOF MS, GTP-loaded KRAS G12C; assay type: binding; details: 15 minutes reaction time point
T2 construct: KRAS4b (amino acids 1-169) G12C/C118S protein; made in house
Protocol: as §1, §2, §3, §4, §5, §6, §7, §8

[3] = target: T3, GDP-loaded KRAS4b (amino acids 1-169) G12C/C118S protein (Homo sapiens, UniProt P01116, C118S/G12C); test: Covalent cysteine 12 modification by MALDI-TOF MS, GDP-loaded KRAS G12C; assay type: binding; details: 15 minutes reaction time point
T3 construct: KRAS4b (amino acids 1-169) G12C/C118S protein; made in house
Protocol: as §1, §2, §3, §4, §5, §6, §7, §8

[4] = test system: pERK in NCI-H358 cells; test: Cell-based pERK HTRF assay (pERK inhibition in H358 cells); details: 30 min incubation
Protocol: Biological Example 3: Cell-Based pERK HTRF Assay
pERK assays (Perkin Elmer) were used to determine the effectiveness of compounds of the present disclosure in disrupting KRAS G12C protein/effector signaling in cells.
On Day 1, cells (NCI-H358) were seeded into 96-well plates at 4×10^4 cells/well in complete growth media (RPMI, 10% FBS).
On Day 2, cells were treated with compounds at 0.25% DMSO. The source plate was created with compounds diluted in media at 5-fold the final assay concentration. The compounds were run in a 9-point concentration curve starting at 75 μM, with a 3-fold dilution between concentrations. 20 μL was transferred onto the cell plates (final volume in wells was 100 μL). Plates were harvested after 30 min incubation by aspirating media and adding kit-supplied 1× supplemented lysis buffer to all wells (75 μl per well). Plates were then placed on a plate shaker and incubated at 850 rpm for an additional 30 min.
Antibody mixture solution was prepared by diluting aliquoted d2 and Eu Cryptate antibodies 1:20 in kit supplied detection buffer, then mixed the diluted antibodies solutions (1:1 v:v). 4 μL of this solution was then added to a 384-well detection plate (Perkin Elmer; 6008230).
Samples were homogenized by pipetting up and down and then transferred (16 μL of cell lysates) from the 96-well cell culture plate to two wells of the HTRF 384-well detection plate containing the antibody solution. Plates were centrifuged (524 g for […]) and allowed to incubate between 4 and 24 h at room temperature. Maximum signal is reached after 4 h incubation time and remains stable over a period of 24 hours. Therefore, readings can be made between 4 and 24 h of incubation. Plates were centrifuged again (524 g for 1 min), and analyzed on the En Vision plate reader using the following settings: Excitation 320 nm, Bandwidth 75 nm; Emission 615 nm, Bandwidth 85 nm; Gain 100%; Flashes 100; Lag 60 μs.
The percent of modification of GppNHp, GTP, or GDP loaded KRAS G12C by MALDI-TOF MS, biochemical Raf1 RBD-KRAS G12C-GppNHp disruption assay IC50, and pERK inhibition IC50 of selected compounds described herein are shown in Table 4. For percent of modification at 15 minutes (MALDI-TOF MS) of GppNHp, GTP, or GDP loaded KRAS G12C: A: percent of modification ≥70%; B: 50≤percent of modification <70%; C: 10%≤percent of modification <50%; D: percent of modification <10%. […] For pERK inhibition in H358 cell assay: A: IC50≤0.1 μM; B: 0.1 μM<IC50≤1 μM; C: IC50>1 μM. Blanks in the table represent that compound was not tested in the indicated assay.

Structure (SMILES) | GppNHp-KRAS G12C percent of modification [1] | GTP-KRAS G12C percent of modification [2] | GDP-KRAS G12C percent of modification [3] | IC50 [4] | IC50 ([4]; Homo sapiens, NCI-H358, 0.5 h)
C[C@@H]1[C@H](N(C)c2nc(OC[C@@]34CCCN3C[C@H](F)C4)nc3c(F)c(-c4ccc(F)c5sc(N)c(C#N)c45)c(C(F)(F)F)cc23)CCN1C(=O)[C@H](F)Cl (atropisomer, axis not shown; (aS)) [Compound 183, 2-amino-4-((S)-4-(((2R,3R)-1-((R)-2-chloro-2-fluoroacetyl)-2-methylpyrrolidin-3-yl)(methyl)amino)-8-fluoro-2-(((2R,7aS)-2-fluorotetrahydro-1H-pyrrolizin-7a(5H)-yl)methoxy)-6-(trifluoromethyl)quinazolin-7-yl)-7-fluorobenzo[b]thiophene-3-carbonitrile] | A (percent of modification ≥70%) | A (percent of modification ≥70%) | A (percent of modification ≥70%) | < 100 nM | –
CCN(c1nc(OC[C@@H]2C[C@@H](OC)CN2C)nc2c(F)c(-c3ccc(F)c4sc(N)c(C#N)c34)c(C(F)(F)F)cc12)[C@@H]1CCN(C(=O)[C@@H](F)Cl)[C@@H]1C [Compound 178] | D (percent of modification <10%) | D (percent of modification <10%) | D (percent of modification <10%) | – | 100 to 1000 nM
CCN(c1nc(OC[C@@H]2C[C@@H](OC)CN2C)nc2c(F)c(-c3ccc(F)c4sc(N)c(C#N)c34)c(C(F)(F)F)cc12)[C@@H]1CCN(C(=O)[C@H](F)Cl)[C@@H]1C [Compound 179] | B (50≤percent of modification <70%) | C (10%≤percent of modification <50%) | C (10%≤percent of modification <50%) | – | < 100 nM
C[C@@H]1CN(c2nc(OC[C@@]34CCCN3C[C@H](F)C4)nc3c(F)c(-c4ccc(F)c5sc(N)c(C#N)c45)c(C(F)(F)F)cc23)[C@@H](C)CN1C(=O)[C@@H](F)Cl [Compound 180] | D (percent of modification <10%) | D (percent of modification <10%) | C (10%≤percent of modification <50%) | – | < 100 nM
C[C@@H]1CN(c2nc(OC[C@@]34CCCN3C[C@H](F)C4)nc3c(F)c(-c4ccc(F)c5sc(N)c(C#N)c45)c(C(F)(F)F)cc23)[C@@H](C)CN1C(=O)[C@H](F)Cl [Compound 181] | D (percent of modification <10%) | D (percent of modification <10%) | D (percent of modification <10%) | – | 100 to 1000 nM
CCN(c1nc(OC[C@@]23CCCN2C[C@H](F)C3)nc2c(F)c(-c3ccc(F)c4sc(N)c(C#N)c34)c(C(F)(F)F)cc12)[C@H]1CCN(C(=O)[C@@H](F)Cl)C1 [Compound 186] | C (10%≤percent of modification <50%) | B (50≤percent of modification <70%) | C (10%≤percent of modification <50%) | – | < 100 nM
CCN(c1nc(OC[C@@]23CCCN2C[C@H](F)C3)nc2c(F)c(-c3ccc(F)c4sc(N)c(C#N)c34)c(C(F)(F)F)cc12)[C@H]1CCN(C(=O)[C@H](F)Cl)C1 [Compound 187] | B (50≤percent of modification <70%) | B (50≤percent of modification <70%) | B (50≤percent of modification <70%) | – | < 100 nM
C[C@@H]1[C@H](N(C)c2nc(OC[C@@]34CCCN3C[C@H](F)C4)nc3c(F)c(-c4ccc(F)c5sc(N)c(C#N)c45)c(C(F)(F)F)cc23)CCN1C(=O)/C=C/c1nc(C(C)(F)F)no1 [Compound 188, 2-amino-4-(4-(((2R,3R)-1-((E)-3-(3-(1,1-difluoroethyl)-1,2,4-oxadiazol-5-yl)acryloyl)-2-methylpyrrolidin-3-yl)(methyl)amino)-8-fluoro-2-(((2R,7aS)-2-fluorotetrahydro-1H-pyrrolizin-7a(5H)-yl)methoxy)-6-(trifluoromethyl)quinazolin-7-yl)-7-fluorobenzo[b]thiophene-3-carbonitrile] | B (50≤percent of modification <70%) | C (10%≤percent of modification <50%) | B (50≤percent of modification <70%) | – | < 100 nM
CO[C@@H]1C[C@@H](COc2nc(N(C)[C@@H]3CCN(C(=O)/C=C/c4nc(C(C)(F)F)no4)[C@@H]3C)c3cc(C(F)(F)F)c(-c4ccc(F)c5sc(N)c(C#N)c45)c(F)c3n2)N(C)C1 [Compound 189] | B (50≤percent of modification <70%) | C (10%≤percent of modification <50%) | B (50≤percent of modification <70%) | – | < 100 nM

From patent publication US20260232666A1, “COMPOSITIONS AND METHODS FOR INHIBITION OF RAS” (TheRas, Inc., priority 2023, published 2026)
